Where two headings read alike, the source gives them in different places.

One data set deals with MERS-S pseudovirus. The data set is described as follows: organism not typed. It counts as cell-based, MERS-CoV. Conditions: for IC50: read-out: IC50: 50% inhibitory concentration.
The nature of the next data set: in vitro. The settings on record: human.

Consider `COc1cccc(/C=N/c2ccc(-c3nc4ccccc4s3)cc2)c1O` [Compound 1a, (E)-2-(((4-(Benzo[d]thiazol-2-yl)phenyl)imino)methyl)-6-methoxyphenol], for which, in the data set on MERS-S pseudovirus, the “inhibitory activity against MERS-S pseudovirus (in words)” value (shortened to “inhibitory activity”) is on record as “modest entry inhibitor” and the IC50 was 730 ± 660 nM.

As for `COc1cccc(/C=N/c2ccc(-c3nc4ccccc4o3)cc2)c1O` [Compound 1b, (E)-2-(((4-(Benzo[d]oxazol-2-yl)phenyl)imino)methyl)-6-methoxyphenol], the “inhibitory activity” value in the data set on MERS-S pseudovirus is “lost inhibitory activity”. For the same compound, the IC50 with MERS-S pseudovirus (Huh-7, 48 h) is > 10000 nM.

Consider `COc1cccc(/C=N/c2ccc(-c3nc4ccccc4[nH]3)cc2)c1O` [Compound 1c, (E)-2-(((4-(1H-Benzo[d]imidazol-2-yl)phenyl)imino)methyl)-6-methoxyphenol], for which the “inhibitory activity” value in the data set on MERS-S pseudovirus is on record as “lost inhibitory activity”. Besides, the IC50 in the data set with MERS-S pseudovirus (Huh-7, 48 h) is > 10000 nM.

With `COc1cccc(/C=N/c2ccc(-c3nc4ccccc4s3)nc2)c1O` [Compound 1d, (E)-2-(((6-(Benzo[d]thiazol-2-yl)pyridin-3-yl)imino)methyl)-6-methoxyphenol], the “inhibitory activity” value in the data set on MERS-S pseudovirus is on record as “Modest inhibitory activity”. The IC50 in the data set on MERS-S pseudovirus (Huh-7, 48 h) was found to be 2700 ± 190 nM.

With `COc1cccc(/C=N/c2nc3ccccc3s2)c1O` [Compound 1e, (E)-2-((benzo[d]thiazol-2-ylimino)methyl)-6-methoxyphenol], the “inhibitory activity” value in the data set on MERS-S pseudovirus is “lost inhibitory activity”. The IC50 in the data set on MERS-S pseudovirus (Huh-7, 48 h) is > 10000 nM.

Turning to `COc1cccc(CNc2ccc(-c3nc4ccccc4s3)cc2)c1O` [Compound 1f, 2-(((4-(benzo[d]thiazol-2-yl)phenyl)amino)methyl)-6-methoxy-phenol], the “inhibitory activity” value in the data set with MERS-S pseudovirus is given as “inhibitory activity was markedly reduced”. Also, the IC50 in the data set on MERS-S pseudovirus (Huh-7, 48 h) was > 10000 nM.

Turning to `COc1cccc(C(=O)Nc2ccc(-c3nc4ccccc4s3)cc2)c1O` [Compound 1g, N-(4-(benzo[d]thiazol-2-yl)phenyl)-2-hydroxy-3-methoxybenzamide], the “inhibitory activity” value in the data set with MERS-S pseudovirus is given as “inhibitory activity was markedly reduced”. In addition, the IC50 in the data set with MERS-S pseudovirus (Huh-7, 48 h) is > 10000 nM.

In the case of `C(=N\c1ccc(-c2nc3ccccc3s2)cc1)/c1ccccc1` [Compound 1h, (E)-N-(4-(Benzo[d]thiazol-2-yl)phenyl)-1-phenylmethanimine], the CC50 in the data set “in vitro” was > 100 µM. The IC50 in the data set with MERS-S pseudovirus (Huh-7, 48 h) came out at 570 ± 110 nM.

Consider `Oc1ccccc1/C=N/c1ccc(-c2nc3ccccc3s2)cc1` [Compound 1i, (E)-2-(((4-(Benzo[d]thiazol-2-yl)phenyl)imino)methyl)phenol], for which, in “in vitro”, the CC50 was > 100 µM. The IC50 in the data set with MERS-S pseudovirus (Huh-7, 48 h) amounted to 520 ± 30 nM.

As for `Oc1cccc(/C=N/c2ccc(-c3nc4ccccc4s3)cc2)c1O` [Compound 1k, (E)-3-(((4-(Benzo[d]thiazol-2-yl)phenyl)imino)methyl)benzene-1,2-diol], the CC50 in the data set “in vitro” was > 100 µM. Moreover, the IC50 with MERS-S pseudovirus (Huh-7, 48 h) was 400 ± 10 nM.

Take `COc1ccc(/C=N/c2ccc(-c3nc4ccccc4s3)cc2)cc1O` [Compound 1l, (E)-5-(((4-(Benzo[d]thiazol-2-yl)phenyl)imino)methyl)-2-methoxyphenol]: in “in vitro”, the CC50 was > 100 µM. The IC50 in the data set with MERS-S pseudovirus (Huh-7, 48 h) was determined as 220 ± 30 nM.

Regarding `C(=N\c1ccc(-c2nc3ccccc3s2)cc1)/c1cccnc1` [Compound 1m, (E)-N-(4-(Benzo[d]thiazol-2-yl)phenyl)-1-(pyridin-3-yl)methanimine], the CC50 in “in vitro” is > 100 µM. Also, the IC50 with MERS-S pseudovirus (Huh-7, 48 h) came to 340 ± 240 nM.

In the case of `C(=N\c1ccc(-c2nc3ccccc3s2)cc1)/c1ccoc1` [Compound 1n, (E)-N-(4-(Benzo[d]thiazol-2-yl)phenyl)-1-(furan-3-yl)methanimine], the CC50 in the data set “in vitro” was > 100 µM. Moreover, in the data set on MERS-S pseudovirus (Huh-7, 48 h), the IC50 is > 10000 nM.

`C(=N\c1ccc(-c2nc3ccccc3s2)cc1)/c1ccsc1` [Compound 1o, (E)-N-(4-(Benzo[d]thiazol-2-yl)phenyl)-1-(thiophen-3-yl)methanimine]: in the data set “in vitro”, the CC50 is > 100 µM. In addition, in the data set with MERS-S pseudovirus (Huh-7, 48 h), the IC50 came to 140 ± 60 nM.

As for `C(=N\c1ccc(-c2nc3ccccc3s2)cc1)/c1cc[nH]c1` [Compound 1p, (E)-N-(4-(Benzo[d]thiazol-2-yl)phenyl)-1-(1H-pyrrol-3-yl)methanimine], the CC50 in the data set “in vitro” is > 100 µM. Also, the IC50 in the data set with MERS-S pseudovirus (Huh-7, 48 h) is > 10000 nM.

In the case of `C(=N\c1ccc(-c2nc3ccccc3s2)cc1)/c1cccs1` [Compound 1q, (E)-N-(4-(Benzo[d]thiazol-2-yl)phenyl)-1-(thiophen-2-yl)methanimine], in “in vitro”, the CC50 was > 100 µM. Besides, the “inhibitory activity” value in the data set on MERS-S pseudovirus is given as “modest inhibitory capacity”. For the same compound, the IC50 in the data set on MERS-S pseudovirus (Huh-7, 48 h) was 6520 ± 1140 nM.

As for `O=[N+]([O-])c1cc(/C=N/c2ccc(-c3nc4ccccc4s3)cc2)cs1` [Compound 1r, (E)-N-(4-(Benzo[d]thiazol-2-yl)phenyl)-1-(5-nitrothiophen-3-yl)methanimine], the CC50 in “in vitro” was > 100 µM. In addition, in the data set on MERS-S pseudovirus (Huh-7, 48 h), the IC50 was 620 ± 310 nM.

As for `C(=N\c1ccc(-c2nc3ccccc3s2)cc1)/c1cscn1` [Compound 1s, (E)-N-(4-(Benzo[d]thiazol-2-yl)phenyl)-1-(thiazol-4-yl)methanimine], the CC50 in the data set “in vitro” was > 100 µM. Further, the IC50 in the data set on MERS-S pseudovirus (Huh-7, 48 h) is > 10000 nM.

Turning to `C(=N\c1ccc(-c2nc3ccccc3s2)cc1)/c1cncs1` [Compound 1t, (E)-N-(4-(Benzo[d]thiazol-2-yl)phenyl)-1-(thiazol-5-yl)methanimine], the CC50 in “in vitro” was > 100 µM. The IC50 in the data set on MERS-S pseudovirus (Huh-7, 48 h) was determined as 8800 ± 10 nM.

Take `C(=N\c1ccc(-c2nc3ccccc3s2)cc1)/c1nccs1` [Compound 1u, (E)-N-(4-(Benzo[d]thiazol-2-yl)phenyl)-1-(thiazol-2-yl)methanimine]: the CC50 in the data set “in vitro” is > 100 µM. The IC50 with MERS-S pseudovirus (Huh-7, 48 h) was > 10000 nM.

For `C(=N\c1ccc(-c2nc3ncccc3s2)cc1)/c1ccsc1` [Compound 4a, (E)-N-(4-(Thiazolo[4,5-b]pyridin-2-yl)phenyl)-1-(thiophen-3-yl)methanimine], the IC50 in the data set on MERS-S pseudovirus (Huh-7, 48 h) was > 10000 nM.

For the compound `C(=N\c1ccc(-c2nc3c(s2)CCCC3)cc1)/c1ccsc1` [Compound 4b, (E)-N-(4-(4,5,6,7-Tetrahydrobenzo[d]thiazol-2-yl)phenyl)-1-(thiophen-3-yl) methanimine], in the data set on MERS-S pseudovirus (Huh-7, 48 h), the IC50 was > 10000 nM.

`C(=N\c1ccc(-c2cn3c(n2)sc2ccccc23)cc1)/c1ccsc1` [Compound 4c, (E)-N-(4-(Benzo[d]imidazo[2,1-b]thiazol-2-yl)phenyl)-1-(thiophen-3-yl) methanimine]: the IC50 in the data set with MERS-S pseudovirus (Huh-7, 48 h) was > 10000 nM.

`C(=N\c1ccc(-c2cn3ccccc3n2)cc1)/c1ccsc1` [Compound 4d, (E)-N-(4-(Imidazo[1,2-a]pyridin-2-yl)phenyl)-1-(thiophen-3-yl)methanimine]: the IC50 with MERS-S pseudovirus (Huh-7, 48 h) is > 10000 nM.

`Fc1cccc2nc(-c3ccc(/N=C/c4ccsc4)cc3)sc12` [Compound 4e, (E)-N-(4-(7-Fluorobenzo[d]thiazol-2-yl)phenyl)-1-(thiophen-3-yl)methanimine]: in the data set with MERS-S pseudovirus (Huh-7, 48 h), the IC50 was determined as 1670 ± 300 nM.

Turning to `Fc1ccc2nc(-c3ccc(/N=C/c4ccsc4)cc3)sc2c1` [Compound 4f, (E)-N-(4-(6-Fluorobenzo[d]thiazol-2-yl)phenyl)-1-(thiophen-3-yl)methanimine], the IC50 in the data set with MERS-S pseudovirus (Huh-7, 48 h) turned out to be 90 ± 10 nM.

As to `Fc1ccc2sc(-c3ccc(/N=C/c4ccsc4)cc3)nc2c1` [Compound 4g, (E)-N-(4-(5-Fluorobenzo[d]thiazol-2-yl)phenyl)-1-(thiophen-3-yl)methanimine], the IC50 in the data set with MERS-S pseudovirus (Huh-7, 48 h) is 1000 ± 70 nM.

On to `Fc1cccc2sc(-c3ccc(/N=C/c4ccsc4)cc3)nc12` [Compound 4h, (E)-N-(4-(4-Fluorobenzo[d]thiazol-2-yl)phenyl)-1-(thiophen-3-yl)methanimine], for which the IC50 in the data set on MERS-S pseudovirus (Huh-7, 48 h) was found to be 530 ± 20 nM.

Turning to `CCOc1ccc2nc(-c3ccc(/N=C/c4ccsc4)cc3)sc2c1` [Compound 4i, (E)-N-(4-(6-Ethoxybenzo[d]thiazol-2-yl)phenyl)-1-(thiophen-3-yl)methanimine], the IC50 in the data set with MERS-S pseudovirus (Huh-7, 48 h) was > 10000 nM.

Consider `Cc1ccc2nc(-c3ccc(/N=C/c4ccsc4)cc3)sc2c1` [Compound 4j, (E)-N-(4-(6-Methylbenzo[d]thiazol-2-yl)phenyl)-1-(thiophen-3-yl)methanimine], for which, in the data set on MERS-S pseudovirus (Huh-7, 48 h), the IC50 was > 10000 nM.

Take `CNc1ccc2nc(-c3ccc(/N=C/c4ccsc4)cc3)sc2c1` [Compound 4k, (E)-N-Methyl-2-(4-((thiophen-3-ylmethylene)amino)phenyl)benzo[d]thiazol-6-amine]: in the data set on MERS-S pseudovirus (Huh-7, 48 h), the IC50 is > 10000 nM.

In the case of `CN(C)c1ccc2nc(-c3ccc(/N=C/c4ccsc4)cc3)sc2c1` [Compound 4l, (E)-N,N-Dimethyl-2-(4-((thiophen-3-ylmethylene)amino)phenyl)benzo[d]thiazol-6-amine], in the data set with MERS-S pseudovirus (Huh-7, 48 h), the IC50 is > 10000 nM.

Consider `O=C(O)c1ccc2nc(-c3ccc(/N=C/c4ccsc4)cc3)sc2c1` [Compound 4m, (E)-2-(4-((Thiophen-3-ylmethylene)amino)phenyl)benzo[d]thiazole-6-carboxylic acid], for which the IC50 with MERS-S pseudovirus (Huh-7, 48 h) was > 10000 nM.

Regarding `CNC(=O)c1ccc2nc(-c3ccc(/N=C/c4ccsc4)cc3)sc2c1` [Compound 4n, (E)-N-Methyl-2-(4-((thiophen-3-ylmethylene)amino)phenyl)benzo[d]thiazole-6-carboxamide], the IC50 in the data set with MERS-S pseudovirus (Huh-7, 48 h) is > 10000 nM.

For the compound `C(=N\c1ccc(Oc2nc3ccccc3s2)cc1)/c1ccsc1` [Compound 4o, (E)-N-(4-(Benzo[d]thiazol-2-yloxy)phenyl)-1-(thiophen-3-yl)methanimine], the “inhibitory activity” value in the data set on MERS-S pseudovirus is reported as “inhibitory activity was abolished”. In addition, the IC50 in the data set on MERS-S pseudovirus (Huh-7, 48 h) is > 10000 nM.

As to `C(=N\c1ccc(Sc2nc3ccccc3s2)cc1)/c1ccsc1` [Compound 4p, (E)-N-(4-(Benzo[d]thiazol-2-ylthio)phenyl)-1-(thiophen-3-yl)methanimine], the “inhibitory activity” value in the data set on MERS-S pseudovirus is “inhibitory activity was abolished”. Besides, the IC50 in the data set on MERS-S pseudovirus (Huh-7, 48 h) was > 10000 nM.

On to “(E)-N-(4-(Benzo[d]thiazol-2-yl)phenyl)-1-(3-methoxyphenyl)methanimine [Compound 1j]”, for which, in the data set on Huh-7 cells, the CC50 is > 100 µM. In addition, the IC50 with MERS-S pseudovirus was found to be 200 ± 50 nM.

These data come from PMC9058255 (RSC Advances, 2020).
